ChEMBL document CHEMBL1145395, “De novo design of selective antibiotic peptides by incorporation of unnatural amino acids” (J Med Chem, 2007)
In brackets after ≈: the same amount, converted by molar mass. Activity calls are given as the source filed them. The rule behind the calls is not given here. Non-standard residues stand in square brackets, D forms with d. Residues, ends and D or L forms follow the SMILES beside them. ξ: configuration not given here. Phe(4-NO2) = N[C@@H](Cc1ccc([N+](=O)[O-])cc1)C(=O)O; Pro(3ξ,4ξ-(CH2)4) = O=C(O)[C@H]1NCC2CCCCC21; Oic = O=C(O)[C@@H]1C[C@@H]2CCCC[C@@H]2N1; Pro(3,4-benzo) = O=C(O)[C@H]1NCc2ccccc21; Tic = O=C(O)[C@@H]1Cc2ccccc2CN1; βAla = NCCC(=O)O

How the values were obtained:
Mycobacterium = assay: Antibacterial activity against Mycobacterium ranae ATCC 110; format: functional
Salmonella typhimurium = assay: Antibacterial activity against Salmonella Typhimurium ATCC 13311; format: functional, Salmonella enterica subsp. enterica serovar Typhimurium; details: for MIC: Salmonella enterica; for Activity: Salmonella enterica subsp. enterica serovar Typhimurium
Staphylococcus aureus = assay: Antibacterial activity against methicillin/gentamicin/tetracycline resistant Staphylococcus aureus ATCC 33592; format: functional
[1] = Toxicity to mouse RBC assessed as hemolytic activity at 100 uM; format: cell-based, Erythrocyte; details: red blood cells, read-out: Activity

For CC(C)C[C@@H](NC(=O)CNC(=O)[C@H](CCCCN)NC(=O)CN)C(=O)N1Cc2ccccc2C[C@H]1C(=O)N1CC2CCCCC2[C@H]1C(=O)N[C@@H](Cc1ccccc1)C(=O)N[C@@H](CCCN)C(=O)N1Cc2ccccc2C[C@H]1C(=O)N1CC2CCCCC2[C@H]1C(=O)N[C@H](CCCCN)C(=O)N[C@@H](Cc1ccccc1)C(=O)N1Cc2ccccc2C[C@H]1C(=O)N1CC2CCCCC2[C@H]1C(=O)N[C@@H](Cc1ccccc1)C(=O)N[C@@H](CCCCN)C(=O)N1Cc2ccccc2C[C@H]1C(=O)N1CC2CCCCC2[C@H]1C(=O)N[C@@H](CCCCN)C(=O)N[C@@H](Cc1ccccc1)C(=O)N1Cc2ccccc2C[C@H]1C(=O)N1CC2CCCCC2[C@H]1C(=O)N[C@H](Cc1ccccc1)C(=O)N[C@@H](CCCCN)C(=O)N1Cc2ccccc2C[C@H]1C(=O)N1CC2CCCCC2[C@H]1C(=O)N[C@@H](Cc1ccccc1)C(=O)N[C@@H](CCCCN)C(=O)N[C@@H](CCCNC(=N)N)C(N)=O (stereo partly specified), the Activity (Mycobacterium) was “inactive”.

CC(=O)NCC(=O)N[C@@H](Cc1ccccc1)C(=O)N1Cc2ccccc2C[C@H]1C(=O)N1[C@H](C(=O)NCC(=O)N[C@H](CCCCN)C(=O)N2Cc3ccccc3C[C@H]2C(=O)N2[C@H](C(=O)NCC(=O)N[C@@H](Cc3ccccc3)C(=O)N3Cc4ccccc4C[C@H]3C(=O)N3[C@H](C(=O)NCC(=O)N[C@H](CCCCN)C(=O)N4Cc5ccccc5C[C@H]4C(=O)N[C@@H](CCCCN)C(=O)N[C@@H](CCCCN)C(=O)N[C@@H](CCCCN)C(=O)N[C@@H](CCCCN)C(N)=O)C[C@@H]4CCCC[C@@H]43)C[C@@H]3CCCC[C@@H]32)C[C@@H]2CCCC[C@@H]21 (Ac-GF[Tic][Oic]G[dK][Tic][Oic]GF[Tic][Oic]G[dK][Tic]KKKK-NH2) showed an MIC (Salmonella typhimurium) of 10 µM (≈ 24.4 µg/mL), an MIC (Staphylococcus aureus) of 10 µM (≈ 24.4 µg/mL) and an MIC (Mycobacterium) of 10 µM (≈ 24.4 µg/mL).

Work on CC(=O)NCC(=O)N[C@@H](Cc1ccc([N+](=O)[O-])cc1)C(=O)N1Cc2ccccc2C[C@H]1C(=O)N1CC2CCCCC2[C@H]1C(=O)NCC(=O)N[C@@H](CCCCN)C(=O)N1Cc2ccccc2C[C@H]1C(=O)N1CC2CCCCC2[C@H]1C(=O)NCC(=O)N[C@@H](Cc1ccc([N+](=O)[O-])cc1)C(=O)N1Cc2ccccc2C[C@H]1C(=O)N1CC2CCCCC2[C@H]1C(=O)NCC(=O)N[C@@H](CCCCN)C(=O)N1Cc2ccccc2C[C@H]1C(=O)N[C@@H](CCCCN)C(=O)N[C@@H](CCCCN)C(=O)N[C@@H](CCCCN)C(=O)N[C@@H](CCCCN)C(N)=O (stereo partly specified) (Ac-G[Phe(4-NO2)][Tic][Pro(3ξ,4ξ-(CH2)4)]GK[Tic][Pro(3ξ,4ξ-(CH2)4)]G[Phe(4-NO2)][Tic][Pro(3ξ,4ξ-(CH2)4)]GK[Tic]KKKK-NH2) yielded an MIC (Salmonella typhimurium) of 30 µM (≈ 75.9 µg/mL), an MIC (Staphylococcus aureus) of 10 µM (≈ 25.3 µg/mL) and an MIC (Mycobacterium) of 10 µM (≈ 25.3 µg/mL).

Work on CC(=O)NCC(=O)N[C@H](Cc1ccccc1)C(=O)N1Cc2ccccc2C[C@H]1C(=O)N1[C@H](C(=O)NCC(=O)N[C@@H](CCCCN)C(=O)N2Cc3ccccc3C[C@H]2C(=O)N2[C@H](C(=O)NCC(=O)N[C@H](Cc3ccccc3)C(=O)N3Cc4ccccc4C[C@H]3C(=O)N3[C@H](C(=O)NCC(=O)N[C@@H](CCCCN)C(=O)N4Cc5ccccc5C[C@H]4C(=O)N[C@@H](CCCCN)C(=O)N[C@@H](CCCCN)C(=O)N[C@@H](CCCCN)C(=O)N[C@@H](CCCCN)C(N)=O)C[C@@H]4CCCC[C@@H]43)C[C@@H]3CCCC[C@@H]32)C[C@@H]2CCCC[C@@H]21 (Ac-G[dF][Tic][Oic]GK[Tic][Oic]G[dF][Tic][Oic]GK[Tic]KKKK-NH2) yielded an MIC (Salmonella typhimurium) of 10 µM (≈ 24.4 µg/mL), an MIC (Staphylococcus aureus) of 3 µM (≈ 7.32 µg/mL) and an MIC (Mycobacterium) of 10 µM (≈ 24.4 µg/mL).

Work on CSCC[C@H](NC(=O)[C@H](CC(C)C)NC(=O)[C@H](CCC(=O)O)NC(=O)[C@@H]1c2ccccc2CN1C(=O)[C@@H]1Cc2ccccc2CN1C(=O)[C@H](Cc1ccccc1)NC(=O)CCNC(=O)[C@@H]1c2ccccc2CN1C(=O)[C@@H]1Cc2ccccc2CN1C(=O)[C@H](CCCCN)NC(=O)CCNC(=O)[C@@H]1c2ccccc2CN1C(=O)[C@@H]1Cc2ccccc2CN1C(=O)[C@H](Cc1ccccc1)NC(=O)CCNC(=O)[C@@H]1c2ccccc2CN1C(=O)[C@@H]1Cc2ccccc2CN1C(=O)[C@H](CCCCN)NC(=O)CCNC(=O)CCNC(=O)CNC(=O)[C@H](CC(C)C)NC(=O)CNC(=O)[C@H](CCCCN)NC(=O)CNC(=O)[C@@H](N)CCC(=O)O)C(=O)N[C@@H](CC(N)=O)C(=O)N[C@@H](CO)C(N)=O (H-EGKGLG[βAla][βAla]K[Tic][Pro(3,4-benzo)][βAla]F[Tic][Pro(3,4-benzo)][βAla]K[Tic][Pro(3,4-benzo)][βAla]F[Tic][Pro(3,4-benzo)]ELMNS-NH2) yielded a hemolysis at 100 µM [1] of 27%.

Molecule CC(C)C[C@H](NC(=O)[C@@H]1C2CCCCC2CN1C(=O)[C@@H]1Cc2ccccc2CN1C(=O)CNC(=O)[C@H](CCCCN)NC(=O)CNC(=O)[C@@H]1C2CCCCC2CN1C(=O)[C@@H]1Cc2ccccc2CN1C(=O)[C@H](CO)NC(=O)[C@H](CC(C)C)NC(=O)[C@@H](N)CCC(=O)O)C(=O)N[C@@H](CCCCN)C(=O)N[C@@H](CCC(=O)O)C(=O)N[C@@H](CO)C(N)=O (stereo partly specified) (H-ELS[Tic][Pro(3ξ,4ξ-(CH2)4)]GKG[Tic][Pro(3ξ,4ξ-(CH2)4)]LKES-NH2) has a hemolysis at 100 µM [1] of 23%.

With CSCC[C@H](NC(=O)[C@H](CC(C)C)NC(=O)[C@H](CCC(=O)O)NC(=O)[C@@H]1C[C@@H]2CCCC[C@@H]2N1C(=O)[C@@H]1Cc2ccccc2CN1C(=O)[C@H](Cc1ccccc1)NC(=O)CNC(=O)[C@@H]1C[C@@H]2CCCC[C@@H]2N1C(=O)[C@@H]1Cc2ccccc2CN1C(=O)[C@H](CCCNC(=N)N)NC(=O)CNC(=O)[C@@H]1C[C@@H]2CCCC[C@@H]2N1C(=O)[C@@H]1Cc2ccccc2CN1C(=O)[C@H](Cc1ccccc1)NC(=O)CNC(=O)[C@@H]1C[C@@H]2CCCC[C@@H]2N1C(=O)[C@@H]1Cc2ccccc2CN1C(=O)[C@H](CCCNC(=N)N)NC(=O)CNC(=O)[C@@H]1C[C@@H]2CCCC[C@@H]2N1C(=O)[C@@H]1Cc2ccccc2CN1C(=O)[C@H](CC(C)C)NC(=O)CNC(=O)[C@H](CCCCN)NC(=O)CN)C(=O)N[C@@H](CC(N)=O)C(=O)N[C@@H](CO)C(N)=O (H-GKGL[Tic][Oic]GR[Tic][Oic]GF[Tic][Oic]GR[Tic][Oic]GF[Tic][Oic]ELMNS-NH2) the hemolysis at 100 µM [1] was 70%.

Molecule CC(C)C[C@H](NC(=O)CNC(=O)[C@H](CCCCN)NC(=O)CN)C(=O)N1Cc2ccccc2C[C@H]1C(=O)N1[C@H](C(=O)NCC(=O)N[C@@H](CCCNC(=N)N)C(=O)N2Cc3ccccc3C[C@H]2C(=O)N2[C@H](C(=O)NCC(=O)N[C@@H](Cc3ccccc3)C(=O)N3Cc4ccccc4C[C@H]3C(=O)N3[C@H](C(=O)NCC(=O)N[C@@H](CCCNC(=N)N)C(=O)N4Cc5ccccc5C[C@H]4C(=O)N4[C@H](C(=O)NCC(=O)N[C@@H](Cc5ccccc5)C(=O)N5Cc6ccccc6C[C@H]5C(=O)N5[C@H](C(=O)NCC(=O)N[C@@H](CCCNC(=N)N)C(=O)N6Cc7ccccc7C[C@H]6C(=O)N6[C@H](C(=O)NCC(=O)N[C@@H](CCCCN)C(=O)N[C@@H](CCCNC(=N)N)C(N)=O)C[C@@H]7CCCC[C@@H]76)C[C@@H]6CCCC[C@@H]65)C[C@@H]5CCCC[C@@H]54)C[C@@H]4CCCC[C@@H]43)C[C@@H]3CCCC[C@@H]32)C[C@@H]2CCCC[C@@H]21 (H-GKGL[Tic][Oic]GR[Tic][Oic]GF[Tic][Oic]GR[Tic][Oic]GF[Tic][Oic]GR[Tic][Oic]GKR-NH2) has a hemolysis at 100 µM [1] of 100%.

For CC(C)C[C@H](NC(=O)CNC(=O)[C@H](CCCCN)NC(=O)CN)C(=O)N1Cc2ccccc2C[C@H]1C(=O)N1CC2CCCCC2[C@H]1C(=O)NCC(=O)N[C@@H](CCCNC(=N)N)C(=O)N1Cc2ccccc2C[C@H]1C(=O)N1CC2CCCCC2[C@H]1C(=O)NCC(=O)N[C@@H](Cc1ccccc1)C(=O)N1Cc2ccccc2C[C@H]1C(=O)N1CC2CCCCC2[C@H]1C(=O)NCC(=O)N[C@@H](CCCNC(=N)N)C(=O)N1Cc2ccccc2C[C@H]1C(=O)N1CC2CCCCC2[C@H]1C(=O)NCC(=O)N[C@@H](Cc1ccccc1)C(=O)N1Cc2ccccc2C[C@H]1C(=O)N1CC2CCCCC2[C@H]1C(=O)NCC(=O)N[C@@H](CCCNC(=N)N)C(=O)N1Cc2ccccc2C[C@H]1C(=O)N1CC2CCCCC2[C@H]1C(=O)NCC(=O)N[C@@H](CCCCN)C(=O)N[C@@H](CCCNC(=N)N)C(N)=O (stereo partly specified) (H-GKGL[Tic][Pro(3ξ,4ξ-(CH2)4)]GR[Tic][Pro(3ξ,4ξ-(CH2)4)]GF[Tic][Pro(3ξ,4ξ-(CH2)4)]GR[Tic][Pro(3ξ,4ξ-(CH2)4)]GF[Tic][Pro(3ξ,4ξ-(CH2)4)]GR[Tic][Pro(3ξ,4ξ-(CH2)4)]GKR-NH2), the Activity (Mycobacterium) was “inactive”.

With CSCC[C@H](NC(=O)[C@H](CC(C)C)NC(=O)[C@H](CCC(=O)O)NC(=O)[C@@H]1CCCN1C(=O)[C@@H]1C2CCCCC2CN1C(=O)[C@H](CCCCN)NC(=O)CNC(=O)[C@H](CC(C)C)NC(=O)CNC(=O)[C@@H]1CCCN1C(=O)[C@@H]1C2CCCCC2CN1C(=O)[C@H](CCCCN)NC(=O)CNC(=O)[C@H](CC(C)C)NC(=O)CNC(=O)[C@@H]1CCCN1C(=O)[C@@H]1C2CCCCC2CN1C(=O)[C@H](CCSC)NC(=O)[C@H](CCCCN)NC(=O)CN)C(=O)NCC(=O)N[C@@H](CCCNC(=N)N)C(N)=O (stereo partly specified) (H-GKM[Pro(3ξ,4ξ-(CH2)4)]PGLGK[Pro(3ξ,4ξ-(CH2)4)]PGLGK[Pro(3ξ,4ξ-(CH2)4)]PELMGR-NH2) the Activity (Salmonella typhimurium) was “inactive” and the Activity (Staphylococcus aureus) was “inactive”.

For CSCC[C@H](NC(=O)[C@H](CC(C)C)NC(=O)[C@H](CCC(=O)O)NC(=O)[C@@H]1Cc2ccccc2CN1C(=O)[C@H](CCCCN)NC(=O)CNC(=O)[C@H](CC(C)C)NC(=O)CNC(=O)[C@@H]1Cc2ccccc2CN1C(=O)[C@H](CCCCN)NC(=O)CNC(=O)[C@H](CC(C)C)NC(=O)CNC(=O)[C@@H]1Cc2ccccc2CN1C(=O)[C@H](CCSC)NC(=O)[C@H](CCCCN)NC(=O)CN)C(=O)NCC(=O)N[C@@H](CCCNC(=N)N)C(N)=O (H-GKM[Tic]GLGK[Tic]GLGK[Tic]ELMGR-NH2), the Activity (Salmonella typhimurium) was “inactive” and the Activity (Staphylococcus aureus) was “inactive”.

For CSCC[C@H](NC(=O)[C@H](CC(C)C)NC(=O)[C@H](CCC(=O)O)NC(=O)[C@@H]1CCCN1C(=O)[C@@H]1Cc2ccccc2CN1C(=O)[C@H](CCCCN)NC(=O)CNC(=O)[C@H](CC(C)C)NC(=O)CNC(=O)[C@@H]1CCCN1C(=O)[C@@H]1Cc2ccccc2CN1C(=O)[C@H](CCCCN)NC(=O)CNC(=O)[C@H](CC(C)C)NC(=O)CNC(=O)[C@@H]1CCCN1C(=O)[C@@H]1Cc2ccccc2CN1C(=O)[C@H](CCSC)NC(=O)[C@H](CCCCN)NC(=O)CN)C(=O)NCC(=O)N[C@@H](CCCNC(=N)N)C(N)=O (H-GKM[Tic]PGLGK[Tic]PGLGK[Tic]PELMGR-NH2), the Activity (Salmonella typhimurium) was “inactive” and the Activity (Staphylococcus aureus) was “inactive”.
